Source: BigSolDB 2.1

CC(=O)Oc1ccc(C2CC(=O)c3c(OC(C)=O)cc(OC(C)=O)cc3O2)cc1 (stereo not given)
solubility (mole fraction)
Details | 278.2 K | 288.2 K | 298.2 K | 308.2 K | 318.2 K
in 2-butoxyethanol | 0.0018 | 0.00253 | 0.00337 | 0.00476 | 0.00712
in 2-methoxyethanol | 0.00836 | 0.0108 | 0.0174 | 0.0235 | 0.0356
in 2-propoxyethanol | 0.00485 | 0.00629 | 0.00775 | 0.00887 | 0.0116
in THF | 0.0413 | 0.0483 | 0.058 | 0.0732 | 0.0902
in acetone | 0.0759 | 0.0869 | 0.11 | 0.129 | 0.166
in ethanol | 0.000721 | 0.000931 | 0.00132 | 0.00175 | 0.00239
in ethyl acetate | 0.022 | 0.034 | 0.045 | 0.0714 | 0.103
in isopropanol | 0.000289 | 0.000426 | 0.000667 | 0.00102 | 0.00152
in methanol | 0.00122 | 0.00155 | 0.00217 | 0.00289 | 0.00407
in n-butanol | 0.000228 | 0.000353 | 0.000491 | 0.000752 | 0.00106
in n-hexanol | 1.8e-05 | 2.4e-05 | 3e-05 | 4.6e-05 | 6.4e-05
in n-pentanol | 0.000249 | 0.000402 | 0.000556 | 0.00101 | 0.00141
in n-propanol | 0.000649 | 0.000873 | 0.00127 | 0.00165 | 0.00245
in sec-butanol | 0.000216 | 0.000372 | 0.000507 | 0.000824 | 0.00122
